As usually defined, the IC50 is the concentration that inhibits the measured activity by half. As usually defined, the inhibition is the change of the read-out against control, counted positive when it falls.

botulinum (serotype-A), sequence (P0DPI1 2-1296 limits assumed): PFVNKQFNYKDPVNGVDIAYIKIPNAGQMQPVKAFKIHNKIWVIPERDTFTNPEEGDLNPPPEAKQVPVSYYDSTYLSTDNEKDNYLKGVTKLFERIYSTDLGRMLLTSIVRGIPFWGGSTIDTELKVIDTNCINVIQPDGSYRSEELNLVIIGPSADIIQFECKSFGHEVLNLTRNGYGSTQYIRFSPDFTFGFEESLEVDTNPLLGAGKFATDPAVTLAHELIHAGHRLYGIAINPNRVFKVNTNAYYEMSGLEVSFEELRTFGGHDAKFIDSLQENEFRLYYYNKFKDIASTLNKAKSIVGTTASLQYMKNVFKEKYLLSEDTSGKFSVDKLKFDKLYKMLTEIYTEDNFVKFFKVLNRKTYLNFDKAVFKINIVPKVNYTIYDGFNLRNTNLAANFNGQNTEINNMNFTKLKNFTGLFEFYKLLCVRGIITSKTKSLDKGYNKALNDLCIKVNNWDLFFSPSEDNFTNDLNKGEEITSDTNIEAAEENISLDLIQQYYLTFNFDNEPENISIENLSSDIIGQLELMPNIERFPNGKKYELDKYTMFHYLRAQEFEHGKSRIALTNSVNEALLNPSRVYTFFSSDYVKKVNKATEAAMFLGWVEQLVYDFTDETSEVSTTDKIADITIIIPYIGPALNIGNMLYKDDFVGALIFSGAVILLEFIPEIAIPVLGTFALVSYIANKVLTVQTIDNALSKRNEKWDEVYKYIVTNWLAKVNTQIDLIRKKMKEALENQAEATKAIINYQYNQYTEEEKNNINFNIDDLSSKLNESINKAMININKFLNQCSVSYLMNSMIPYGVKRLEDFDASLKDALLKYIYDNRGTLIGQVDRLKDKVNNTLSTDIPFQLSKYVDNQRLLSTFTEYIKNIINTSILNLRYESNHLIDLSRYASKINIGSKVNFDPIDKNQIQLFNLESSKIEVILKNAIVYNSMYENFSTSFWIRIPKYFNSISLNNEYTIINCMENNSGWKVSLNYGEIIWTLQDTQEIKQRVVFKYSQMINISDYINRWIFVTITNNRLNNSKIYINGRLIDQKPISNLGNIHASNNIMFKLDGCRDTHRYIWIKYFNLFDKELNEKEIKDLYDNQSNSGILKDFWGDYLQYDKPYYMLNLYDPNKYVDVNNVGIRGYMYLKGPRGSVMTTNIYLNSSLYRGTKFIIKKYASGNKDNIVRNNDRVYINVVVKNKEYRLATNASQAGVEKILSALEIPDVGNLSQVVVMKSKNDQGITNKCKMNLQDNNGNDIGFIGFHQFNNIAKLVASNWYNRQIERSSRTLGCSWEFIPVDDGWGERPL
botulinum toxin recombinant light chain, sequence (P0DPI0 2-448 limits assumed): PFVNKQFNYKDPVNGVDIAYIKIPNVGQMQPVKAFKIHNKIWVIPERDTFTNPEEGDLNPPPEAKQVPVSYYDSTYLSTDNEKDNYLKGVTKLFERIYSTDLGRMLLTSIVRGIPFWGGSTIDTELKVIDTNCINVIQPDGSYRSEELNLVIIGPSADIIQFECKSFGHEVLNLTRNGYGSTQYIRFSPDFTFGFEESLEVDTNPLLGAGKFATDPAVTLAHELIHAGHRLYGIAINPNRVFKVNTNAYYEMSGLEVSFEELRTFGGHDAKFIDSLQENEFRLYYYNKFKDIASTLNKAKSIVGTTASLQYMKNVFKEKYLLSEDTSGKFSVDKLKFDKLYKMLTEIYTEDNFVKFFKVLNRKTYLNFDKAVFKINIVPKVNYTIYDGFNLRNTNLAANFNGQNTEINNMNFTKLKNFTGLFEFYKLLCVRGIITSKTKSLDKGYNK

The first experiment addresses botulinum toxin recombinant light chain (Clostridium botulinum, UniProt P0DPI0). As to the kind of experiment: biochemical.
Conditions: not given
Take `CC(NC(=O)CS)c1ccc(Cl)cc1Cl` (stereo not drawn) [drawing 65]: the IC50 was 5 to 27 µM. Turning to `C[C@@H](NC(=O)CS)c1ccc2ccccc2c1`, the IC50 lay within 8 to 21 µM.

Another experiment has as its target botulinum (serotype-A) (Clostridium botulinum, UniProt P0DPI1). Description: cell-based. The note with it: read-out: Cell Biology (% inhibition at 30 uM).
As to `Cc1ccc(NC(=O)CS)cc1C#N`, the inhibition at 30 µM was determined as 77%. Take `O=C(CS)Nc1ccc2c(c1)Cc1cc(Br)ccc1-2`: the inhibition at 30 µM is 90%.

For the compound `O=C(CS)Nc1cc(-c2ccc(Cl)cc2)n[nH]1`, the inhibition at 30 µM lay within 57 to 100%. Take `O=C(CS)Nc1cc(-c2ccc(F)cc2)n[nH]1`: the inhibition at 30 µM was 73 to 78%. As for `CCOC(=O)Cc1csc(NC(=O)CS)n1`, the inhibition at 30 µM was found to be 86%.

Staying with this experiment, now noted: read-out: Cell Biology IC50.
As for `CC(NC(=O)CS)c1ccc(Cl)cc1Cl` (stereo not drawn) [drawing 69], the IC50 was 18 µM. Consider `O=C(CS)Nc1cc(-c2ccc(Cl)cc2)n[nH]1`, for which the IC50 was in the range of 10 to 19 µM.

The values above are taken from patent US20110190285A1 (priority 2008, published 2011).
